Laboratory results taken from patent US20220118117A1, “MODULATORS OF METABOTROPIC GLUTAMATE RECEPTOR 4” (The General Hospital Corporation, priority 2019, published 2022).

Key:
mGluR4 = mGluR4 (Homo sapiens, UniProt Q14833); experiment: GloSensor cAMP biosensor assay, mGluR4 PAM and agonist activity; type: cell-based; design: expressed in transfected cells; settings: in presence of EC20 concentration of agonist (1 μM L-SOP); read-out: EC50, mGluR4 PAM activity
Experimental: Cell Culture. HEK-293 cells were maintained with complete Dulbecco's modified Eagle's medium (DMEM), which was composed of 10% fetal bovine serum (FBS), 2 mM L-glutamine, 100 units/mL penicillin G, 100 μg/mL streptomycin at 37° C. in the presence of 5% CO2. HEK-293 stable cell lines with tetracycline inducible expression of mGluR1, mGluR2, mGluR4, mGluR6 or mGluR8 were maintained with complete DMEM with Hygromycin B (100 μg/mL), Blasticidin (15 μg/mL) at 37° C. in the presence of 5% CO2.
cAMP assay. The Gi/o coupled receptors (mGluR2, mGluR3, mGluR4, mGluR6 and mGluR8) were tested using cAMP assay. Promega's split luciferase based GloSensor cAMP biosensor technology was used in determining Gi-GPCR mediated cAMP production in live cells. On the cells stably expressing mGluR2, mGluR3, mGluR4, mGluR6 or mGluR8, GloSensor cAMP DNA construct was transfected overnight. Cells were seeded into PLL coated 384-well white clear bottom cell culture plates with complete BME Buffer with Tetracycline (1 μg/mL) at a density of 20,000 cells for another 24 h. The cell medium was removed and then 20 μL of buffer was loaded. […] Luminescence was counted in a Trilux luminescence counter. Data were analyzed with Prizm 5.0 (GraphPad software).
Secondary assays—Dose-response assays. […] For each compound, the results from four replicates were averaged and then either EC50 or IC50 values were calculated by non-linear regression using the 4-parameter logistic equation. […]
In sum, the mGluR4 PAM activity was determined using Promega's split luciferase based GloSensor cAMP biosensor assay (refs. 41-42). mGluR4 is coupling to Gαi protein to inhibit adenylate cyclase, which converts ATP to cAMP, which plays an important role in many signal transduction pathways. […] The mGluR4 PAM activity of 15 was evaluated in presence of EC20 concentration of agonist (1 μM L-SOP) by measuring changes in intracellular cAMP concentration.

[1] = ex vivo biodistribution of [18F]15; type: in vivo, Sprague Dawley rats; settings: rat, iv
Experimental: Ex vivo Studies of Biodistribution. For biodistribution studies the normal male Sprague Dawley rats were anesthetized with isoflurane/nitrous oxide (1-1.5% isoflurane) to install catheter into the tail vain for administration of radioactivity ([^18F]15, 22±3 MBq, iv). Total of 15 rats in deep anesthesia (isoflurane 4% and cervical dislocation) were sacrificed in a group of three at five different time points (5, 10, 20, 30, and 60 min) after injection of [^18F]15. Major organs including lung, heart, liver, spleen, kidney, muscle, midbrain, cortex, cerebellum and blood were harvested to determine radioactivity. The tissue samples were weighted, and the radioactivity was measured with the standard samples of [^18F]15 using Wizard2 2480, Perkin Elmer, Calif. Radioactivity of the tissue samples was determined as percent of the injected activity per gram of the tissue.

[2] = PET imaging of [18F]15, baseline; type: in vivo, Sprague Dawley rats
Experimental: PET Imaging of [^18F]15 in Rats. Altogether 24 normal male Sprague Dawley rats were used for the imaging studies comprising 15 baseline studies and 15 blocking studies. Rats were anaesthetized with isoflurane/nitrous oxide (1.0-1.5% isoflurane, with oxygen flow of 1-1.5 L/min), and catheter was installed into tail vein for the administration of [^18F]15. Dynamic volumetric PET data was acquired with a PET-CT scanner for 60 min (Triumph-II, Tri-Foil Imaging, Northridge, Calif.). The vital signals such as heart rate and respiration rate were monitored during scanning period. PET data acquisition was started immediately after administration of radioactivity with the dose range of 18-34 MBq depending on the size of the rat followed by CT imaging to obtain anatomical information and data for attenuation correction of PET data. PET data was processed by using maximum-likelihood expectation-maximization (MLEM) algorithm with 30 iterations to dynamic volumetric images, and corrected for uniformity, scatter, and attenuation. The CT data was processed by the modified Feldkamp algorithm using matrix volumes of 512×512×512 and pixel size of […]. Co-registration of CT and PET images and analysis of PET images were carried out using PMOD3.2 software (PMOD Technology, Zurich, Switzerland).

Chain of mGluR4 (Q14833 33-912): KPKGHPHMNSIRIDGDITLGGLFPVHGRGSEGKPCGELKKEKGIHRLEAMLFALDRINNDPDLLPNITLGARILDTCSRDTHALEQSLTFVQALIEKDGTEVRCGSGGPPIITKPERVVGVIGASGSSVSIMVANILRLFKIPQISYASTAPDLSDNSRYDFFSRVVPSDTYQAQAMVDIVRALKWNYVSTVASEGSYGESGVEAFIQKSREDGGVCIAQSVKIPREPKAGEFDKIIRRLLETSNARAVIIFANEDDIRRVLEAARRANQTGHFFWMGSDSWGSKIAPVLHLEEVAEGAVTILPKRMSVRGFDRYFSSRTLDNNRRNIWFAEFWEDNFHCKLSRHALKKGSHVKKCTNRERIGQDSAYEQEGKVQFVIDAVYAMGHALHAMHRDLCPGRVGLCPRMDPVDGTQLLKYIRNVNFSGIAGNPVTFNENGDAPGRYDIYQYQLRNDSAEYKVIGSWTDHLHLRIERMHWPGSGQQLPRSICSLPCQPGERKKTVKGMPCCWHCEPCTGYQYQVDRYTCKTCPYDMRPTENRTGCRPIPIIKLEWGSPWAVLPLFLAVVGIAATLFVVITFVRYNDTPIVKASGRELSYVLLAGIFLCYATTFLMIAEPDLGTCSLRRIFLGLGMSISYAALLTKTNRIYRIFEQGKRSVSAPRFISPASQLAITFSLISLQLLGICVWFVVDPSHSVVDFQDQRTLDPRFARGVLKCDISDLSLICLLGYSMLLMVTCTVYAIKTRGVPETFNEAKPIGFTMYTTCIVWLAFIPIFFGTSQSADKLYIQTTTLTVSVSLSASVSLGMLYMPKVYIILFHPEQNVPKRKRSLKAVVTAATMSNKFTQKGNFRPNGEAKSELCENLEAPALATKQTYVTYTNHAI

EC50 (mGluR4) [µM]	accumulation in brain ([1]; at 10 min) [% ID/g]	accumulation in heart ([1]; at 20 min) [% ID/g]	accumulation in liver ([1]; at 20 min) [% ID/g]	accumulation in lungs ([1]; at 20 min) [% ID/g]	accumulation in kidneys ([1]; at 30 min) [% ID/g]	BBB crossing ([2]; PET, rat brain)	time of highest accumulation in the thalamus ([2]; after administration of the ligand)	maximum average uptake in the thalamus ([2]; time interval of 1-10 min after administering) [% ID/cc]	SMILES
0.055	–	–	–	–	–	–	–	–	c1ccc(Nc2nc3c(s2)CCCc2[nH]ncc2-3)nc1 [Compound 11]
–	0.41±0.18	0.50±0.08	1.33±0.12	0.58±0.17	0.93±0.57	crosses BBB	about 2 min	1.77±0.26	[2H]C([2H])([18F])Sc1cc(NC(=O)c2ccccn2)ccc1Cl [[^18F]15]
